What was measured:
CRBN and Helios (IKZF2) = molecular target: T1, CRBN and Helios (IKZF2) (Homo sapiens, UniProt Q96SW2+Q9UKS7); experiment: TR-FRET dimerization assay (CRBN-IKZF2 ternary complex formation); assay type: binding; conditions: n=1
T1 construct: His (N); Strep (N)
Procedure: A focused library of imide analogs was synthesized and assessed for their ability to induce dimerization between CRBN and Helios in a time-resolved fluorescence energy transfer (TR-FRET) assay (FIG. 1A).
Prior to TR-FRET measurements being conducted, the reactions were incubated for 15 min at rt. […] The TR-FRET signal of each data point was extracted by calculating the 520/490 nm ratios. Data from single measurements (n=1), each calculated as an average of at least three technical replicates per well per experiment are presented in Table 1.
BODIPY-labeled CRBN in complex with Damage Specific DNA Binding Protein 1 (DDB1) harboring an internal deletion of the flexible BPB propeller (DDB1AB-CRBN) and in vitro biotinylated IKZF2 were treated with increasing concentrations of the indicated compounds in the presence of tracer amounts of Terbium-Streptavidin (Tb-SA). Compound-induced recruitment of IKZF2 to CRBN was quantified following the 520/490 TR-FRET ratio using a PHERAstar® plate reader (BMG) utilizing two synchronized PMTs to reduce background.

IKZF2 = experiment: Cellular degradation assay, eGFP-IKZF2Δ fusion with mCherry reporter in Flp-In 293 cells; assay type: cell-based; conditions: 5 h incubation, n=1
Procedure: (§1) IKZF1Δ, IKZF2Δ, GSPT1 and SALL4 ZnF1-2 were subcloned into mammalian pcDNA5/FRT Vector (Ampicillin and Hygromycin B resistant) modified to contain MCS-eGFP-P2A-mCherry. […] Following 2-3 passage cycle, FACS (FACSAria™ II, BD) was used to enrich for cells expressing eGFP and mCherry. Cells stably expressing the IKZF1Δ, IKZF2Δ, GSPT1 or SALL4 Znf1-2 GFP fusions with mCherry reporter were seeded at 30-50% confluency in 384-well plates with 50 μL FluoroBrite™ DMEM media (Thermo Fisher Scientific, A18967) containing 10% FBS per well a day before compound treatment. Compound titrations were dispensed using a D300e Digital Dispenser (HP), normalized to 0.5% DMSO, and incubated with cells for 5 hours.
(§2) The resulting images were analyzed using CellProfiler™. A series of image analysis steps (‘image analysis pipeline’) was constructed. First, the red and green channels were aligned and cropped to target the middle of each well (to avoid analysis of heavily clumped cells at the edges), and a background illumination function was calculated for both red and green channels of each well individually and subtracted to correct for illumination variations across the 384-well plate from various sources of error. An additional step was then applied to the green channel to suppress the analysis of large auto fluorescent artifacts and enhance the analysis of cell specific fluorescence by way of selecting for objects under a given size, 30 A.U., and with a given shape, speckles. mCherry-positive cells were then identified in the red channel filtering for objects between 8-60 pixels in diameter and using intensity to distinguish between clumped objects. The green channel was then segmented into GFP positive and negative areas and objects were labeled as GFP positive if at least 40% of it overlapped with a GFP positive area. The fraction of GFP-positive cells/mCherry-positive cells in each well was then calculated, and the green and red images were rescaled for visualization.
(§3) The degradation assay was performed as described above. […] Degradation was measured after 5 h of compound treatment and the concentrations that lead to half degradation at 5 h (DC50,5 h) were calculated using the nonlinear fit variable slope model (GraphPad Software).

IKZF1 = molecular target: T2, IKZF1 (Homo sapiens, UniProt Q13422); experiment: Cellular degradation assay, eGFP-IKZF1Δ fusion with mCherry reporter in Flp-In 293 cells; assay type: cell-based; conditions: 5 h incubation, n=1
T2 construct: expressed in transfected cells; host or cells: Flp-In 293
Procedure: as §1, §2, §3

[1] = compound concentration 6.6667E−05
[2] = compound concentration 6.6667E−06
[3] = compound concentration 6.6667E−07 (667 nM)
[4] = compound concentration 2.00E−05
[5] = compound concentration 2.00E−06
[6] = compound concentration 2.00E−07

T1 sequence (Q96SW2 whole entry): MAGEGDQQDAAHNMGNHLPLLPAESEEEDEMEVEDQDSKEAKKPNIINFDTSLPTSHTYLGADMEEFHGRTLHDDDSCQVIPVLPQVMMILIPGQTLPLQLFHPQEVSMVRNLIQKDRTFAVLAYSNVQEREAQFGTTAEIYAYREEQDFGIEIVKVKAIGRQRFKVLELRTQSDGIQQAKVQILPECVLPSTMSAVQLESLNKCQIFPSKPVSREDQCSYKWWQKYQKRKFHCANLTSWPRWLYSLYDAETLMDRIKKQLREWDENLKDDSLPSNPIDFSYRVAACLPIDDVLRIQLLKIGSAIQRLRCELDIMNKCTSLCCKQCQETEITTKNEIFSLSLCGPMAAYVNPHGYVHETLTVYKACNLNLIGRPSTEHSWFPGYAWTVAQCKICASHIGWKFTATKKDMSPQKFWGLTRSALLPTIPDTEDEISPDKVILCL
T1 sequence (Q9UKS7 whole entry): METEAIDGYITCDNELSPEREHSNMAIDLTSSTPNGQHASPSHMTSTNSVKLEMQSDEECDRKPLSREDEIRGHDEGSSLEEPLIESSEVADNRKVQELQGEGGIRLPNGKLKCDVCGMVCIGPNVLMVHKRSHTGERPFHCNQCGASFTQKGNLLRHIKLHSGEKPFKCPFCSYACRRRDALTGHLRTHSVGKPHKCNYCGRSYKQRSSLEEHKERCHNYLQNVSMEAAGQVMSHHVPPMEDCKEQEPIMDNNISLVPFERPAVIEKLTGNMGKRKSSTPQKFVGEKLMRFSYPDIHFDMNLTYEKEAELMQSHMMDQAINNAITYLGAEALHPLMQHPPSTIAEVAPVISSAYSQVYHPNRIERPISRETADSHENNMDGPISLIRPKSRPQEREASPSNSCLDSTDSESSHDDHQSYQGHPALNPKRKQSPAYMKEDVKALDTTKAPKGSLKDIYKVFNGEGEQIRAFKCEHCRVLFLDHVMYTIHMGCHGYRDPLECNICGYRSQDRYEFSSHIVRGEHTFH
T2 sequence (Q13422 83-213 isoform Q13422-7 limits assumed): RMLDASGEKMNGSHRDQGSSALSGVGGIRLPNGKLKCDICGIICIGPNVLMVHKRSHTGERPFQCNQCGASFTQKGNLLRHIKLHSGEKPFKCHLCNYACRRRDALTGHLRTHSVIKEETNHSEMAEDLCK
T2 sequence (Q96SW2 whole entry partner, the tested form may be a part): as the sequence (Q96SW2 whole entry) above
T2 sequence (Q16531 2-1140 partner limits assumed): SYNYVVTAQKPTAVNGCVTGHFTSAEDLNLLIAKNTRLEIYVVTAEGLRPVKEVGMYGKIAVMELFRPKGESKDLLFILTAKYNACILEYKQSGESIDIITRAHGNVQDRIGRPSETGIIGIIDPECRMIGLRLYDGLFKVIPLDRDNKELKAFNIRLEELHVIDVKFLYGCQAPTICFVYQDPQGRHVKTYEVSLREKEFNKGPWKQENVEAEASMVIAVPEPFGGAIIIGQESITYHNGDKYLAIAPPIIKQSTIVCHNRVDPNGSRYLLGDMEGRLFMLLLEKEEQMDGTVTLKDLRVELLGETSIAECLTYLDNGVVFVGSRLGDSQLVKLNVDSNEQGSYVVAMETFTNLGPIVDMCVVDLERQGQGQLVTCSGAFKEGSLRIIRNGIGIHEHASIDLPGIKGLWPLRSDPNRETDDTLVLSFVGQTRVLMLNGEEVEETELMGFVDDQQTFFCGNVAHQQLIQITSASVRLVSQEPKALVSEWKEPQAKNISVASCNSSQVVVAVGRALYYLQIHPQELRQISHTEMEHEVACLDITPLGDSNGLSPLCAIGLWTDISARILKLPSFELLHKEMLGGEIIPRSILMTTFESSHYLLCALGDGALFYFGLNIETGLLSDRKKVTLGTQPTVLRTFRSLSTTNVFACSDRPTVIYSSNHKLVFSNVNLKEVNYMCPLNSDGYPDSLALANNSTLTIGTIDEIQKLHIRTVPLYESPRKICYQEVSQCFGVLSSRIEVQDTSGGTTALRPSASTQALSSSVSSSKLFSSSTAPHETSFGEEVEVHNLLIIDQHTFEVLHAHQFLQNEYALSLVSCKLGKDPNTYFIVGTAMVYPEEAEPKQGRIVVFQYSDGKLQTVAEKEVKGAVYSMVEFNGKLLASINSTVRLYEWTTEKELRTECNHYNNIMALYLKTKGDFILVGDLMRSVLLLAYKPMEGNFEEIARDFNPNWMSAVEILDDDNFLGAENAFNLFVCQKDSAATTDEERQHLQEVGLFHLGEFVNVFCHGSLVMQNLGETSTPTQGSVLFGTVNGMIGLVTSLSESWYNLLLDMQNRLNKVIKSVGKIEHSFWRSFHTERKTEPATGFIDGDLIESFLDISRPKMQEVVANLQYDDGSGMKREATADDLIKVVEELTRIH

| Structure (SMILES) | TR-FRET-IKZF2 (Normalized to CC-885) (CRBN and Helios (IKZF2); [1]) | TR-FRET-IKZF2 (Normalized to CC-885) (CRBN and Helios (IKZF2); [2]) | TR-FRET-IKZF2 (Normalized to CC-885) (CRBN and Helios (IKZF2); [3]) | IKZF2 GFP/RFP Relative Abundance (IKZF2; [4]) | IKZF2 GFP/RFP Relative Abundance (IKZF2; [5]) | IKZF2 GFP/RFP Relative Abundance (IKZF2; [6]) | IKZF1 GFP/RFP Relative Abundance (IKZF1; [4]) | IKZF1 GFP/RFP Relative Abundance (IKZF1; [5]) | IKZF1 GFP/RFP Relative Abundance (IKZF1; [6]) |
| --- | --- | --- | --- | --- | --- | --- | --- | --- | --- |
| Cc1ccc(NC(=O)N2Cc3ccc(NC4=CC(=O)N(C5CCC(=O)NC5=O)C4=O)cc3C2)cc1Cl (stereo not drawn) [Compound 107, N-(3-chloro-4-methylphenyl)-5-((1-(2,6-dioxopiperidin-3-yl)-2,5-dioxo-2,5-dihydro-1H-pyrrol-3-yl)amino)isoindoline-2-carboxamide] | 0.086 | 0.066 | 0.066 | 0.225 | 1.034 | 1.048 | 0.245 | 1.043 | 0.997 |
| Cc1ccc(NC(=O)N2CCc3ccc(NC4=CC(=O)N(C5CCC(=O)NC5=O)C4=O)cc3C2)cc1Cl (stereo not drawn) [Compound 109, N-(3-chloro-4-methylphenyl)-7-((1-(2,6-dioxopiperidin-3-yl)-2,5-dioxo-2,5-dihydro-1H-pyrrol-3-yl)amino)-3,4-dihydroisoquinoline-2(1H)-carboxamide] | 0.463 | 0.640 | 0.506 | 0.563 | 0.313 | 0.539 | 0.189 | 0.101 | 0.142 |
| Cc1ccc(NC(=O)OCCc2cccc(NC3=CC(=O)N(C4CCC(=O)NC4=O)C3=O)c2)cc1Cl (stereo not drawn) [Compound 110, 3-((1-(2,6-dioxopiperidin-3-yl)-2,5-dioxo-2,5-dihydro-1H-pyrrol-3-yl)amino)phenethyl (3-chloro-4-methylphenyl)carbamate] | 1.017 | 1.086 | 0.853 | 0.048 | 0.048 | 0.038 | 0.096 | 0.066 | 0.086 |
| Cc1ccc(NC(=O)NCc2cc(NC(=O)N(C)C)cc(NC3=CC(=O)N(C4CCC(=O)NC4=O)C3=O)c2)cc1Cl (stereo not drawn) [Compound 112, 3-(3-((3-(3-chloro-4-methylphenyl)ureido)methyl)-5-((1-(2,6-dioxopiperidin-3-yl)-2,5-dioxo-2,5-dihydro-1H-pyrrol-3-yl)amino)phenyl)-1,1-dimethylurea] | 0.048 | 0.035 | 0.035 | 1.081 | 1.047 | 1.034 | 0.726 | 0.949 | 1.002 |
| O=C1CCC(N2C(=O)C=C(Nc3cccc(CNC(=O)Nc4ccccc4)c3)C2=O)C(=O)N1 (stereo not drawn) [Compound 119, 1-(3-((1-(2,6-dioxopiperidin-3-yl)-2,5-dioxo-2,5-dihydro-1H-pyrrol-3-yl)amino)benzyl)-3-phenylurea] | 0.817 | 0.671 | 0.629 | 0.392 | 0.516 | 0.544 | 0.055 | 0.079 | 0.101 |
| Cc1cc(CNC(=O)NC(C)c2cccc(NC3=CC(=O)N(C4CCC(=O)NC4=O)C3=O)c2)ccc1Cl (stereo not drawn) [Compound 120, 1-(4-chloro-3-methylbenzyl)-3-(1-(3-((1-(2,6-dioxopiperidin-3-yl)-2,5-dioxo-2,5-dihydro-1H-pyrrol-3-yl)amino)phenyl)ethyl)urea] | 1.263 | 1.011 | 0.860 | 0.077 | 0.117 | 0.157 | 0.094 | 0.110 | 0.092 |
| Cc1ccc(CNC(=O)CCc2cccc(NC3=CC(=O)N(C4CCC(=O)NC4=O)C3=O)c2)cc1Cl (stereo not drawn) [Compound 121, N-(3-chloro-4-methylbenzyl)-3-(3-((1-(2,6-dioxopiperidin-3-yl)-2,5-dioxo-2,5-dihydro-1H-pyrrol-3-yl)amino)phenyl)propanamide] | 1.521 | 1.376 | 1.357 | 0.071 | 0.087 | 0.051 | 0.125 | 0.093 | 0.120 |
| Cc1ccc(CNC(=O)c2cccc(NC3=CC(=O)N(C4CCC(=O)NC4=O)C3=O)c2)cc1Cl (stereo not drawn) [Compound 122, N-(3-chloro-4-methylbenzyl)-3-((1-(2,6-dioxopiperidin-3-yl)-2,5-dioxo-2,5-dihydro-1H-pyrrol-3-yl)amino)benzamide] | 0.715 | 0.628 | 0.469 | 0.738 | 0.789 | 0.833 | 0.076 | 0.088 | 0.096 |
| Cc1ccc(CNC(=O)Cc2cccc(NC3=CC(=O)N(C4CCC(=O)NC4=O)C3=O)c2)cc1Cl (stereo not drawn) [Compound 123, N-(3-chloro-4-methylbenzyl)-2-(3-((1-(2,6-dioxopiperidin-3-yl)-2,5-dioxo-2,5-dihydro-1H-pyrrol-3-yl)amino)phenyl)acetamide] | 1.234 | 1.087 | 0.960 | 0.065 | 0.093 | 0.078 | 0.083 | 0.057 | 0.092 |

Reference: patent US12227488B2, “Small molecule degraders of Helios and methods of use” (DANA-FARBER CANCER INSTITUTE, INC., priority 2018, dated 2025)
